The values below are quoted from earlier work in US20050201943A1, “Magnetic resonance imaging using contrast agents bioactivated by enzymatic cleavage” (Epix Medical, Inc.,. a Delaware corporation, priority 2000, published 2005).

Residues, ends and D or L forms follow the SMILES beside them. *: point of attachment. Bz = O=C(c1ccccc1)*

In series [1] the target is human serum albumin (HSA) (Homo sapiens, UniProt P02768). Conditions: bound to HSA versus unbound in aqueous solution.
A further series addresses T1, TAFI (Homo sapiens, UniProt Q96IY4).
T1 sequence (Q96IY4 115-423): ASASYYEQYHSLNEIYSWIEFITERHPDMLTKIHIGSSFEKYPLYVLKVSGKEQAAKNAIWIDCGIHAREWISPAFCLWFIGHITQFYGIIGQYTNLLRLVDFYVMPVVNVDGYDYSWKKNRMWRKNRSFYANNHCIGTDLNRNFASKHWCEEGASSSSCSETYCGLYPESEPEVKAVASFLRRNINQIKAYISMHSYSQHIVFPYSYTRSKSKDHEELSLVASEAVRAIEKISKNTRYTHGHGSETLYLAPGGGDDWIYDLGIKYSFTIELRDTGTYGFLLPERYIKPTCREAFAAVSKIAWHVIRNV
Conditions: other TAFI substrate, given for comparison.

human serum albumin (HSA), sequence (P02768 25-609): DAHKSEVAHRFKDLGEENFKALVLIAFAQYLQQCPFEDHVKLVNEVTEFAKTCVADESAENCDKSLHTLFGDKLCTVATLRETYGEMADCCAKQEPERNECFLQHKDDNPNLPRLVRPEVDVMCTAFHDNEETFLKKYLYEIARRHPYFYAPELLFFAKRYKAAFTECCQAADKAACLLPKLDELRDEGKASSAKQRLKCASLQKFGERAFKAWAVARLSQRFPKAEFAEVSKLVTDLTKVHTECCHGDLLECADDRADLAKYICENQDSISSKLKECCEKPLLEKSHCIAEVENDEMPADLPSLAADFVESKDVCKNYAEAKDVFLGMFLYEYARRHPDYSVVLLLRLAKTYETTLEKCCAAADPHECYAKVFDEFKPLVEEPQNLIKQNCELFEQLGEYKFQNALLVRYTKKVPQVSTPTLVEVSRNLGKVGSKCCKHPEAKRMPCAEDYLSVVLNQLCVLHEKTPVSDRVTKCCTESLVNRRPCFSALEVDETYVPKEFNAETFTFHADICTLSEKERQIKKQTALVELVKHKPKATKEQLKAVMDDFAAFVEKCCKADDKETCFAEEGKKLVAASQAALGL

As for `O=C([O-])CN(CCN(CC(=O)[O-])C[C@H](COP(=O)([O-])OC1CCC(c2ccccc2)(c2ccccc2)CC1)N(CC(=O)[O-])CC(=O)[O-])CC(=O)[O-].[Gd+3].[H+].[H+].[H+]` [MS-325], the “increase in relaxivity of the protein-bound form compared to the unbound contrast agent” value in series [1] is “seven to eight times”.

As to `N=C(N)NCCC[C@H](NC(=O)CNC(=O)c1ccccc1)C(=O)O` [hippuryl arginine] (Bz-Gly-Arg-OH), on TAFI, the Km (as a rule, the substrate concentration at which the rate is half of its maximum) was 140 µM and the kcat (usually the maximal rate divided by the concentration of active sites) was 21 s⁻¹.
